Reference: ChEMBL document CHEMBL3351958, “Structure-activity relationships of sugar-based peptidomimetics as modulators of amyloid β-peptide early oligomerization and fibrillization” (Eur J Med Chem, 2014)
Calls of active or inactive are those of the source. No cut-off for these calls is given here. Numbered stars: 1 amine (or outer) side, 2 acyl side, 3 side chain; on linkers, the order of the positions; unused ones are H or OH. Square brackets hold non-standard residues; d marks the D form. Peptide text beside a SMILES is read from it. * marks the point of attachment. X1 = O=C(CCOC[C@H]1O[C@@H](OCCCN[*:1])[C@H](O)[C@@H](O)[C@@H]1O)[*:2]; X2 = O=C(CCOC[C@H]1O[C@@H](OCCN[*:1])[C@H](O)[C@@H](O)[C@@H]1O)[*:2]; X4 = O=C(CCOC[C@H]1O[C@H](OCCCN[*:1])[C@H](O)[C@@H](O)[C@@H]1O)[*:2]; X3 = O=C(CCOC[C@H]1O[C@H](OCCN[*:1])[C@H](O)[C@@H](O)[C@@H]1O)[*:2]; Boc = CC(C)(C)OC(=O)*

Assays:
[1] = target: Amyloid-beta precursor protein (Homo sapiens) (UniProt P05067); assay: Inhibition of amyloid beta (1 to 42) (unknown origin) oligomerization assessed as fold change in half-life of aggregation extension/reduction at 1:10 Abeta:compound ratio by thioflavin T assay based fluorescence microscopy
[2] = target: Amyloid-beta precursor protein (Homo sapiens) (UniProt P05067); assay: Inhibition of amyloid beta (1 to 42) (unknown origin) oligomerization assessed as reduction in intensity of experimental fluorescence plateau at 1:10 Abeta:compound ratio by thioflavin T assay based fluorescence microscopy; parameters: scale not given: the % may be the effect or the level left
[3] = target: Amyloid-beta precursor protein (Homo sapiens) (UniProt P05067); assay: Inhibition of amyloid beta (1 to 42) (unknown origin) oligomerization assessed as fold change in half-life of aggregation extension/reduction at 1:1 Abeta:compound ratio by thioflavin T assay based fluorescence microscopy
[4] = target: Amyloid-beta precursor protein (Homo sapiens) (UniProt P05067); assay: Inhibition of amyloid beta (1 to 42) (unknown origin) oligomerization assessed as reduction in intensity of experimental fluorescence plateau at 1:1 Abeta:compound ratio by thioflavin T assay based fluorescence microscopy
[5] = target: Amyloid-beta precursor protein (Homo sapiens) (UniProt P05067); assay: Inhibition of amyloid beta (1 to 42) (unknown origin) oligomerization assessed as increase in intensity of experimental fluorescence plateau at 1:10 Abeta:compound ratio by thioflavin T assay based fluorescence microscopy; parameters: scale not given: the % may be the effect or the level left
[6] = target: Amyloid-beta precursor protein (Homo sapiens) (UniProt P05067); assay: Inhibition of amyloid beta (1 to 42) (unknown origin) fibril formation at 100 uM after 4 to 24 hrs by transmission electron microscopy
[7] = target: Amyloid-beta precursor protein (Homo sapiens) (UniProt P05067); assay: Inhibition of amyloid beta (1 to 42) (unknown origin) oligomer formation at 1:1 Abeta:compound ratio after 4 to 6 hrs by capillary electrophoresis
[8] = target: Amyloid-beta precursor protein (Homo sapiens) (UniProt P05067); assay: Inhibition of amyloid beta (1 to 42) (unknown origin) oligomer formation at 1:2 Abeta:compound ratio after 4 to 6 hrs by capillary electrophoresis
[9] = target: Amyloid-beta precursor protein (Homo sapiens) (UniProt P05067); assay: Inhibition of amyloid beta (1 to 42) (unknown origin) oligomer formation at 1:10 Abeta:compound ratio after 4 to 6 hrs by capillary electrophoresis
[10] = target: Amyloid-beta precursor protein (Homo sapiens) (UniProt P05067); assay: Inhibition of amyloid beta (1 to 42) (unknown origin) oligomerization assessed as fold change in half-life of aggregation extension/reduction at 1:5 Abeta:compound ratio by thioflavin T assay based fluorescence microscopy
[11] = target: Amyloid-beta precursor protein (Homo sapiens) (UniProt P05067); assay: Inhibition of amyloid beta (1 to 42) (unknown origin) oligomerization assessed as reduction in intensity of experimental fluorescence plateau at 1:5 Abeta:compound ratio by thioflavin T assay based fluorescence microscopy; parameters: scale not given: the % may be the effect or the level left
[12] = target: Amyloid-beta precursor protein (Homo sapiens) (UniProt P05067); assay: Inhibition of amyloid beta (1 to 42) (unknown origin) oligomer formation at 100 uM after 4 to 6 hrs by capillary electrophoresis
[13] = target: Amyloid-beta precursor protein (Homo sapiens) (UniProt P05067); assay: Inhibition of amyloid beta (1 to 42) (unknown origin) oligomer formation assessed as monomer stabilization at 100 uM after 4 to 6 hrs by capillary electrophoresis

Amyloid-beta precursor protein (Homo sapiens), sequence (P05067 whole entry): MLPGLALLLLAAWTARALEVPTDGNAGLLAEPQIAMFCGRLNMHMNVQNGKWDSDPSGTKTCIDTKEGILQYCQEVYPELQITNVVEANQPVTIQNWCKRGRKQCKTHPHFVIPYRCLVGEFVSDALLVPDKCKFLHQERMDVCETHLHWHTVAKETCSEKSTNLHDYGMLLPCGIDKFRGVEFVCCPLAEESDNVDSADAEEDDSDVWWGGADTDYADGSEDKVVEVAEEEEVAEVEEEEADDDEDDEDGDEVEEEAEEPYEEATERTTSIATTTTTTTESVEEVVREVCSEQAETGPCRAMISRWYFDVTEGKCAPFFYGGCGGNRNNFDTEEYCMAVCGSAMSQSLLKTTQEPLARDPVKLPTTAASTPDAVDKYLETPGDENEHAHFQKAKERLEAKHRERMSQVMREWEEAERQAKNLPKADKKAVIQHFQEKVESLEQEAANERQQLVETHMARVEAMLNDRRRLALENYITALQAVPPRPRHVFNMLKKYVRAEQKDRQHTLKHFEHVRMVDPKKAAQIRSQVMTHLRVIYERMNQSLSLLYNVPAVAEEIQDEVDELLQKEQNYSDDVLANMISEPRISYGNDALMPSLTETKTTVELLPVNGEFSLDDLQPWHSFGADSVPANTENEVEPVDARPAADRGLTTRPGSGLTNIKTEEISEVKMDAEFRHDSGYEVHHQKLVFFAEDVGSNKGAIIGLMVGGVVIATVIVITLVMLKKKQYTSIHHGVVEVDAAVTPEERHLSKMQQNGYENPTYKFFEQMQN

Row | fold change (FC) [1] | Activity [2] | fold change in aggregation half-life [3] | inhibition [4] | Activity [5] [%] | inhibition [6] | inhibition [7] | inhibition [8] | inhibition [9] | fold change (FC) [10] | Activity [11] [%] | inhibition [12] | inhibition [13] | SMILES
1 | inactive | inactive | inactive | inactive | – | – | – | – | – | – | – | – | – | COC(=O)[C@H](CC(C)C)NC(=O)[C@@H](NC(=O)CCOC[C@H]1OC(O)[C@H](O)[C@@H](O)[C@@H]1O)C(C)C (stereo partly drawn)
2 | 0.8 | – | inactive | inactive | 14 | – | – | – | – | – | – | – | – | COC(=O)[C@H](CC(C)C)NC(=O)[C@@H](NC(=O)CCOC[C@H]1OC(O)[C@H](OCc2ccccc2)[C@@H](OCc2ccccc2)[C@@H]1OCc1ccccc1)C(C)C (stereo partly drawn)
3 | 1.9 | 37% | inactive | inactive | – | inactive | inactive | – | inactive | – | – | – | – | COC(=O)[C@H](CC(C)C)NC(=O)[C@@H](NC(=O)CCOC[C@H]1O[C@@H](OCCCNC(=O)[C@@H](NC(=O)[C@H](C)NC(=O)OC(C)(C)C)C(C)C)[C@H](O)[C@@H](O)[C@@H]1O)C(C)C (Boc-AV[X1]VL-OMe)
4 | 1.8 | 29% | inactive | inactive | – | – | – | – | – | – | – | – | – | COC(=O)[C@H](CC(C)C)NC(=O)[C@@H](NC(=O)CCOC[C@H]1O[C@@H](OCCNC(=O)[C@@H](NC(=O)[C@H](C)NC(=O)OC(C)(C)C)C(C)C)[C@H](O)[C@@H](O)[C@@H]1O)C(C)C (Boc-AV[X2]VL-OMe)
5 | inactive | inactive | inactive | inactive | – | – | – | – | – | – | – | – | – | COC(=O)[C@H](CC(C)C)NC(=O)[C@@H](NC(=O)CCOC[C@H]1O[C@H](OCCNC(=O)[C@@H](NC(=O)[C@H](C)NC(=O)OC(C)(C)C)C(C)C)[C@H](O)[C@@H](O)[C@@H]1O)C(C)C (Boc-AV[X3]VL-OMe)
6 | inactive | inactive | inactive | inactive | – | – | – | – | – | – | – | – | – | COC(=O)[C@H](CC(C)C)NC(=O)[C@@H](NC(=O)CCOC[C@H]1O[C@H](OCCCNC(=O)[C@@H](NC(=O)[C@H](C)NC(=O)OC(C)(C)C)C(C)C)[C@H](O)[C@@H](O)[C@@H]1O)C(C)C (Boc-AV[X4]VL-OMe)
7 | inactive | inactive | inactive | inactive | – | – | – | – | – | – | – | – | – | COC(=O)[C@H](CC(C)C)NC(=O)[C@@H](NC(=O)OC(C)(C)C)C(C)C (Boc-Val-Leu-OMe)
8 | 2.8 | 56% | inactive | inactive | – | Active | Active | – | Active | 2.1 | 40 | Active | Active | COC(=O)[C@H](CC(C)C)NC(=O)[C@@H](NC(=O)CCOC[C@H]1O[C@@H](OCCCNC(=O)[C@@H](NC(=O)[C@H](C)N)C(C)C)[C@H](O)[C@@H](O)[C@@H]1O)C(C)C (H-AV[X1]VL-OMe)
9 | inactive | inactive | inactive | inactive | – | – | – | – | – | – | – | – | – | COC(=O)[C@H](CC(C)C)NC(=O)[C@@H](NC(=O)CCOC[C@H]1O[C@@H](OCCNC(=O)[C@@H](NC(=O)[C@H](C)N)C(C)C)[C@H](O)[C@@H](O)[C@@H]1O)C(C)C (H-AV[X2]VL-OMe)

The next lines start with the molecule.

Row | SMILES | fold change (FC) [1] | Activity [2] | fold change in aggregation half-life [3] | inhibition [4] | Activity [5] [%] | inhibition [6] | inhibition [7] | inhibition [8] | inhibition [9] | fold change (FC) [10] | Activity [11] [%] | inhibition [12] | inhibition [13]
10 | COC(=O)[C@H](CC(C)C)NC(=O)[C@@H](NC(=O)CCOC[C@H]1O[C@@H](OCCCNC(=O)[C@@H](NC(=O)[C@H](C)NC(=O)OC(C)(C)C)C(C)C)[C@H](OC(C)=O)[C@@H](OC(C)=O)[C@@H]1OC(C)=O)C(C)C | inactive | inactive | inactive | inactive | – | – | – | – | – | – | – | – | –
11 | COC(=O)[C@H](CC(C)C)NC(=O)[C@@H](NC(=O)CCOC[C@H]1O[C@@H](OCCCNC(=O)[C@@H](NC(=O)[C@H](C)NC(=O)OC(C)(C)C)C(C)C)[C@H](OCc2ccccc2)[C@@H](OCc2ccccc2)[C@@H]1OCc1ccccc1)C(C)C | 0.7 | – | inactive | inactive | 27 | Active | inactive | Active | – | – | – | – | –
12 | COC(=O)[C@H](CC(C)C)NC(=O)[C@@H](NC(=O)CCOC[C@H]1O[C@@H](OCCNC(=O)[C@@H](NC(=O)[C@H](C)NC(=O)OC(C)(C)C)C(C)C)[C@H](OCc2ccccc2)[C@@H](OCc2ccccc2)[C@@H]1OCc1ccccc1)C(C)C | 0.8 | – | inactive | inactive | 38 | – | – | – | – | – | – | – | –
13 | COC(=O)[C@H](CC(C)C)NC(=O)[C@@H](NC(=O)CCOC[C@H]1O[C@H](OCCNC(=O)[C@@H](NC(=O)[C@H](C)NC(=O)OC(C)(C)C)C(C)C)[C@H](OC(C)=O)[C@@H](OC(C)=O)[C@@H]1OC(C)=O)C(C)C | inactive | inactive | inactive | inactive | – | – | – | – | – | – | – | – | –
14 | OC[C@H]1OC(O)[C@H](O)[C@@H](O)[C@@H]1O (stereo partly drawn) | inactive | inactive | inactive | inactive | – | – | – | – | – | – | – | – | –
15 | COC(=O)[C@H](CC(C)C)NC(=O)[C@@H](N)C(C)C (H-Val-Leu-OMe) | inactive | inactive | inactive | inactive | – | – | – | – | – | – | – | – | –
